Source: ChEMBL document CHEMBL1140555, “Synthesis and evaluation of novel pyrazolidinone analogs of PGE2 as EP2 and EP4 receptors agonists” (Bioorg Med Chem Lett, 2007)
≈ marks a conversion by molar mass, not a printed value.

Columns and labels:
[1] = target: T1, Prostaglandin E2 receptor EP4 subtype (Homo sapiens, UniProt P35408); experiment: Binding affinity at human prostaglandin EP4 receptor
[2] = target: T2, Prostaglandin E2 receptor EP2 subtype (Homo sapiens, UniProt P43116); experiment: Binding affinity at human prostaglandin EP2 receptor
[3] = target: T1, Prostaglandin E2 receptor EP4 subtype; experiment: Agonist activity at human prostaglandin EP4 receptor; assay type: functional
[4] = Oral bioavailability in rat; assay type: ADME, organism-based; conditions: in vivo
[5] = Metabolic stability in human liver microsomes after 1 hr; assay type: ADME, Microsome; conditions: read-out: Stability
Mus musculus = experiment: Induction of ovulation in sc dosed CD1 mouse; assay type: functional, organism-based
[6] = Solubility in HBSS; assay type: physicochemical
[7] = Metabolic stability in rat liver microsomes after 1 hr; assay type: ADME, Microsome; conditions: read-out: Stability
[8] = Fraction unbound ligand in rat; assay type: ADME
[9] = Half life in rat; assay type: ADME, organism-based; conditions: in vivo
[10] = Solubility in saline; assay type: physicochemical
[11] = Apparent permeability of the compound; assay type: ADME; conditions: not told
Homo sapiens = organism: Homo sapiens; experiment: Selectivity for human EP4 over human EP2 receptor
[12] = target: T2, Prostaglandin E2 receptor EP2 subtype; experiment: Agonist activity at human prostaglandin EP2 receptor; assay type: functional

T2 sequence (P43116 whole entry): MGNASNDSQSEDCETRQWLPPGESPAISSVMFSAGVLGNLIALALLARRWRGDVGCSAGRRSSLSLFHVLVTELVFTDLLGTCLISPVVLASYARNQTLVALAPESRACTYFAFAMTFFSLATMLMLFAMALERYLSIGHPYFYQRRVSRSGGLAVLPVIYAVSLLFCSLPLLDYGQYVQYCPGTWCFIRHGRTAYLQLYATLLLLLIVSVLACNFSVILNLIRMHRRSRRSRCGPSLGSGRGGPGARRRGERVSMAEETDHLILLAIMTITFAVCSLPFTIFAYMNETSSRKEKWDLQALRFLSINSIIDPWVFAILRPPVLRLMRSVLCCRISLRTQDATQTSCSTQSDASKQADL
T1 sequence (P35408 whole entry): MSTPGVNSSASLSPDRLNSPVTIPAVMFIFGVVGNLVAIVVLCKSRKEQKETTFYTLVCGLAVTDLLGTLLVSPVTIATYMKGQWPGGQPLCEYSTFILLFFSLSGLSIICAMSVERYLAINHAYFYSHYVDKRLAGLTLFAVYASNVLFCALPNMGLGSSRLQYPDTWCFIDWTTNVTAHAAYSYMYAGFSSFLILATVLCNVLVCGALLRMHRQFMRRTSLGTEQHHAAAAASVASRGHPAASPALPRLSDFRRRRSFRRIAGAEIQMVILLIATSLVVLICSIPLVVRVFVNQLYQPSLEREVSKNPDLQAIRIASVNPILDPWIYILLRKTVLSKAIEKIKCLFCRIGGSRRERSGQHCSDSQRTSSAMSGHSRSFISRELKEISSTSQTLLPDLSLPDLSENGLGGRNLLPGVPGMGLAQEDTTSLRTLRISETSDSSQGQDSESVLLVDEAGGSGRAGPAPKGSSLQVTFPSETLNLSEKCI

| SMILES | Ki [1] [nM] | Ki [2] [nM] | also measured |
| --- | --- | --- | --- |
| O=C(O)c1ccc(CCN2C(=O)CCN2CCC(O)Cc2cccc(Cl)c2)cc1 (stereo unspecified) |  |  | EC50 [3]: 0.2 nM |
| CCCCCC(O)CCN1CCC(=O)N1CCc1ccc(C(=O)O)cc1 (stereo unspecified) |  |  | Selectivity ratio (Homo sapiens): 10 |
| CCCC1(C(O)CCCN2CCC(=O)N2CCc2ccc(C(=O)O)cc2)CCC1 (stereo unspecified) | > 50000 | 750 | EC50 [12]: 393 nM |
| O=C(O)c1ccc(CCN2C(=O)CCN2CCC(O)Cc2ccccc2)cc1 (stereo unspecified) |  |  | Selectivity ratio (Homo sapiens): 100 |
| O=C(O)c1ccc(CCN2C(=O)CCN2CC[C@@H](O)Cc2ccccc2)cc1 | 134 | 9200 |  |
| O=C(O)c1ccc(CCN2C(=O)CCN2CCC(O)Cc2cccc(CCC3CC3)c2)cc1 (stereo unspecified) | 330 | 8340 |  |
| CCCC1([C@H](O)C/C=C/[C@H]2[C@H](O)CC(=O)[C@@H]2CCCCCCC(=O)OC)CCC1 [BUTAPROST] | > 10000 | 110 |  |

The remaining compounds from weak to strong by Ki [1], led by results:

| Ki [1] [nM] | Ki [2] [nM] | SMILES | also measured |
| --- | --- | --- | --- |
| 57 | 6000 | O=C(O)c1ccc(CCN2C(=O)CCN2CCC(O)Cc2cccc(C(F)(F)F)c2)cc1 (stereo unspecified) |  |
| 44 | 560 | CC(CCN1CCC(=O)N1CCc1ccc(C(=O)O)cc1)Cc1cccc(CCc2ccccc2)c1 (stereo unspecified) |  |
| 27 | 2360 | O=C(O)c1ccc(CCN2C(=O)CCN2CCC(O)Cc2cccc(I)c2)cc1 (stereo unspecified) |  |
| 26 | 2030 | O=C(O)c1ccc(CCN2C(=O)CCN2CC[C@@H](O)Cc2cccc(I)c2)cc1 |  |
| 13 | 5450 | O=C(O)c1ccc(CCN2C(=O)CCN2CCC(O)Cc2cccc(Br)c2)cc1 (stereo unspecified) | bioavailability [4]: 6.7%; remaining at 1 h [5]: 0%; Activity (Mus musculus): Dose-dependent effect; solubility [6]: 890 µg/mL (≈ 1930 µM); remaining at 1 h [7]: 7%; EC50 [3]: 0.2 nM; fraction unbound [8]: 0.61; half-life [9]: 4.25 h; solubility [10]: 840 µg/mL (≈ 1820 µM); Papp [11]: 10 ×10⁻⁶ cm/s |
| 13 | 3070 | O=C(O)c1ccc(CCN2C(=O)CCN2CC[C@@H](O)Cc2cccc(Br)c2)cc1 | EC50 [12]: > 10000 nM; EC50 [3]: 0.1 nM |
